Patent EP0269311A2, “Methods of treating bone diseases by administration of a cysteine proteinase inhibitor” (Merck & Co., Inc., priority 1986, dated 1988)

Key:
[1] = system: serum Ca⁺⁺; assay: Rat model of humoral hypercalcemia of malignancy (transplanted Rice 500 Leydig cell tumor), serum Ca++; type: in vivo, male Fisher rats; conditions: for Serum mg % Ca++: 40 mg/kg/day intubated once a day from two days after tumor transplantation
From the text: A rat model that closely mimics the human syndrome of Humoral Hypercalcemia of Malignancy was described by Insogna et al, Endocrinology 114, 888-896 (1984). In this model a Rice 500 Leydig cell tumor is transplated in male Fisher rats. […] These findings exactly parallel those in human humoral hypercalcemia of malignancy. The same model was used to study the effect of the formula I compound on lowering serum Ca⁺⁺ levels in rodents with established malignant hypercalcemia. Rats (150-200 gr) were intubated once a day with three different doses of the formula I compound including 10 mg, 25 mg and 80 mg/kg/day as shown in Figure 1. Control animals received no compound. The compound was given on days 10-15 after tumor transplantation when all animals were hypercalcemic. In experiment No. 2 (Table 1), rodents were intubated once a day with 40 mg/kg, of the formula I compound two days after tumor transplantation. These studies were utilized to examine whether the formula I compound could prevent tumor-induced hypercalcemia in these animals which generally appears 8-10 days after transplantation.

[2] = system: serum Ca⁺⁺; assay: Rat model of secondary hyperparathyroidism (Ca++ deficient diet), serum Ca++; type: in vivo, Rats; conditions: intubated
From the text: In this model rats are fed a Ca⁺⁺ deficient diet, causing an enhanced release of parathyroid hormone (PTH) and secondary hyperparathyroidism. At this stage most of the serum Ca⁺⁺ is mobilized from bone. To maintain serum calcium levels within the normal range, bone resorption is stimulated by the released parathyroid hormone. This model was used to study the effect of Formula I compound on rats with secondary hyperparathyroidism. Rats (150-200 gr) were kept on a Ca⁺⁺ deficient diet for 7 days. Different doses of Formula I compound were intubated into animals (n=10) and serum Ca⁺⁺ was monitored at 0, 4, 8, 12 and 24 hours.

[3] = molecular target: T1, papain (Carica papaya, UniProt P00784); conditions: with the disappearance of the thiol group of papain; cited from earlier work
T1 sequence (P00784 134-345): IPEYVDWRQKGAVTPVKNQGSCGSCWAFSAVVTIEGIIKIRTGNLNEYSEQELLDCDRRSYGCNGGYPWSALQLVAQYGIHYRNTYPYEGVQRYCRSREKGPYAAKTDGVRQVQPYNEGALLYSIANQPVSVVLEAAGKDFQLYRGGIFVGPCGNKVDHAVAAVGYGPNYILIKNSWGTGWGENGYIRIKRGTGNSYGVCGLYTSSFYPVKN

[4] = molecular target: cathepsin B (Homo sapiens, UniProt P07858); conditions: cited from earlier work
[5] = molecular target: T2, cathepsin H (Homo sapiens, UniProt P09668); conditions: cited from earlier work
T2 sequence (P09668 98-335): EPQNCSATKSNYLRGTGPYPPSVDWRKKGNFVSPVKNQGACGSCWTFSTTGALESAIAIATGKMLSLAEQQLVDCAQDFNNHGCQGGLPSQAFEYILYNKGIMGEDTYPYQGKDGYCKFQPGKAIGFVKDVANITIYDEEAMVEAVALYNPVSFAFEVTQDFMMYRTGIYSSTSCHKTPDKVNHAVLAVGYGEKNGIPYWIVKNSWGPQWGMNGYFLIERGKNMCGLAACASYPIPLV

[6] = system: serine proteinases; conditions: cited from earlier work
[7] = system: metalloproteinases; conditions: cited from earlier work

## CC(C)C[C@H](NC(=O)[C@H]1O[C@@H]1C(=O)O)C(=O)NCCCCN=C(N)N [Formula I compound, epoxysuccinyl-leucylamido (4-guanidino)butane]
[1]; day 2
  Serum mg % Ca++: 10.5 ± 0.3 mg %
[1]; day 4
  Serum mg % Ca++: 10.1 ± 0.4 mg %
[1]; day 6
  Serum mg % Ca++: 10.2 ± 0.2 mg %
[1]; day 8
  Serum mg % Ca++: 10.3 ± 0.3 mg %
[1]; day 10
  Serum mg % Ca++: 9.8 ± 0.4 mg %
[1]; day 11
  Serum mg % Ca++: 10.3 ± 0.4 mg %
[1]; day 12
  Serum mg % Ca++: 10.1 ± 0.3 mg %
[1]; day 13
  Serum mg % Ca++: 10.4 ± 0.4 mg %
[1]; day 14
  Serum mg % Ca++: 10.5 ± 0.3 mg %
[1]; day 15
  Serum mg % Ca++: 10.6 ± 0.4 mg %
[1]; given orally, 10 mg, 25 mg and 80 mg/kg/day on days 10-15 after tumor transplantation (Figure 1)
  tumor induced hypercalcemia (established): block
[1]; given orally, 40 mg/kg once a day from two days after tumor transplantation (Table I)
  tumor induced hypercalcemia (prevention): can prevent
[2]; 10 mg, 0 hours
  Serum mg % Ca++: 11.5 ± 0.5 mg %
[2]; 10 mg, 4 hours
  Serum mg % Ca++: 10.6 ± 0.4 mg %
[2]; 10 mg, 8 hours
  Serum mg % Ca++: 10.4 ± 0.5 mg %
[2]; 10 mg, 12 hours
  Serum mg % Ca++: 10.2 ± 0.4 mg %
[2]; 10 mg, 24 hours
  Serum mg % Ca++: 11.5 ± 0.6 mg %
[2]; 20 mg, 0 hours
  Serum mg % Ca++: 11.3 ± 0.4 mg %
[2]; 20 mg, 4 hours
  Serum mg % Ca++: 10.2 ± 0.3 mg %
[2]; 20 mg, 8 hours
  Serum mg % Ca++: 9.7 ± 0.4 mg %
[2]; 20 mg, 12 hours
  Serum mg % Ca++: 9.5 ± 0.3 mg %
[2]; 20 mg, 24 hours
  Serum mg % Ca++: 12.0 ± 0.3 mg %
[2]; 60 mg, 0 hours
  Serum mg % Ca++: 11.7 ± 0.6 mg %
[2]; 60 mg, 4 hours
  Serum mg % Ca++: 9.8 ± 0.4 mg %
[2]; 60 mg, 8 hours
  Serum mg % Ca++: 9.5 ± 0.3 mg %
[2]; 60 mg, 12 hours
  Serum mg % Ca++: 8.9 ± 0.4 mg %
[2]; 60 mg, 24 hours
  Serum mg % Ca++: 12.7 ± 0.4 mg %
[2]; most effective dose 40 mg/kg, in 12 hours
  drop of serum Ca⁺⁺: 28.8%
[3]
  inhibition of papain: inhibit
[4]
  inhibition of cathepsin B: inhibit
[5]
  inhibition of cathepsin H: inhibit
[6]
  effect on serine proteinases: unaffected
[7]
  effect on metalloproteinases: unaffected
